# Laboratory results reported in US7429564B2, “Oral insulin therapy” (Emisphere Technologies, Inc., priority 2002, dated 2008).
# Read-outs that look alike come from different tables or passages of the source.
# Experiment: Example 5: 4-CNAB plasma pharmacokinetics, single oral doses, healthy male volunteers
# Assay type: in vivo, human
# Details: for AUC(0-inf) / AUC(0-t) / Cmax / MRT inf / Vd/F / half-life / Tmax / MRT / MRT last: male, human, plasma; for AUC(0-inf) / AUC(0-t) / Cmax / MRT inf / Vd/F / half-life / Tmax / MRT: po; for MRT inf: read-out: 4-CNAB MRT(0-inf); for half-life: read-out: 4-CNAB t1/2 (converted); for MRT: read-out: 4-CNAB MRT(0-f); for MRT last: read-out: 4-CNAB MRT(0-t)
# Protocol: A single center, double-blind, randomized placebo-controlled study undertaken in healthy human subjects in order to assess the safety and tolerability of escalating single oral doses of 4-CNAB capsules and insulin/4-CNAB capsules.
# Within each treatment period in each group, eight subjects were planned to receive active treatment and two subjects to receive placebo. In Group 1, there were four escalating single doses of 4-CNAB (400, 800, 1400 and 2000 mg) and each subject received either all four of these escalating doses or three escalating single doses and one dose of placebo. […] In Group 3 there were three escalating oral doses of Insulin/4-CNAB (100 Units/300 mg, 100 Units/450 mg and 150 Units/100 mg) and one SC dose of 150 Units of insulin. Each subject received either all four of these treatments or three of these treatments and one placebo treatment. For all groups, there was a washout period of at least 72 hours between treatment periods.
# The concentration of 4-CNAB in plasma was determined using a combination of liquid chromatography and Mass spectrometry assay known as LC-MS/MS. The method involves protein precipitation followed by separation on liquid chromatography using a Hypersil BDS column and a mobile phase consisting of methanol and acetate buffer. The eluting peaks were quantified by MS/MS. The equipment used for the determination of 4-CNAB in plasma comprises of an Agilent 1100 modular HPLC system with a Micromass Quattro Micro MS/MS detector. HPLC and AR grade chemicals and reagents were used throughout the study.
# On the basis of plasma concentrations of 4-CNAB and insulin, PK analysis was performed using non-compartmental PK methods as implemented in WinNonlin™ Professional version 3.2. The profiles for insulin and C-peptide corrected insulin were evaluated up to 6 hours as food was given 6 hours following insulin treatment. The following parameters were derived for 4-CNAB: Cmax, tmax, AUC(0-t), AUC(0-inf), AUC% Extrap, Kel, t1/2, CL/F, Vd/F, MRT(0-t), MRT(0-inf) and Frel. The following parameters were derived for insulin and C-peptide corrected insulin: Cmax, tmax, AUC(0-2), AUC(0-6), AUC(0-t) and concentrations (C^b) and corresponding time (t^b) immediately prior to intervention for hypoglycemia.
# [1] = 2000 mg, 4-CNAB alone 2000 mg oral
# [2] = with insulin, 100 Units/300 mg oral
# [3] = with insulin, 100 Units/450 mg oral
# [4] = with insulin, 100 Units/600 mg oral
# [5] = with insulin, 150 Units/100 mg oral
# [6] = with insulin, 150 Units/200 mg oral
compound,measurement,setting,value
"O=C(O)CCCNC(=O)c1ccc(Cl)cc1O [4-CNAB, 4-[(4-chloro, 2-hydroxybenzoyl)amino]butanoic acid]",AUC(0-inf),[1],192000 ± 37100 ng·h/mL
same,AUC(0-t),[1],204000 ± 103000 ng·h/mL
same,Cmax,[1],135000 ± 86600 ng/mL
same,MRT inf,[1],7.45 ± 2.36 h
same,Vd/F,"2000 mg, 4-CNAB alone 2000 mg oral, read-out: 4-CNAB Vd/F",245 ± 131 L
same,half-life,[1],918 ± 414 min
same,Tmax,"2000 mg, 4-CNAB alone 2000 mg oral, read-out: 4-CNAB tmax, median (range)",45 min
same,AUC(0-inf),[2],9240 ± 5940 ng·h/mL
same,AUC(0-t),[2],8740 ± 5520 ng·h/mL
same,Cmax,[2],8900 ± 6350 ng/mL
same,MRT,[2],1.51 ± 0.16 h
same,MRT inf,[2],2.43 ± 0.82 h
same,Vd/F,"with insulin, 100 Units/300 mg oral, read-out: 4-CNAB Vz/F",324 ± 239 L
same,half-life,[2],318 ± 198 min
same,Tmax,"with insulin, 100 Units/300 mg oral, read-out: 4-CNAB tmax, median",30 min
same,AUC(0-inf),[3],26800 ± 4560 ng·h/mL
same,AUC(0-t),[3],26000 ± 4410 ng·h/mL
same,Cmax,[3],23200 ± 7930 ng/mL
same,MRT,[3],1.79 ± 0.5 h
same,MRT inf,[3],2.3 ± 0.46 h
same,Vd/F,"with insulin, 100 Units/450 mg oral, read-out: 4-CNAB Vz/F",101 ± 35 L
same,half-life,[3],246 ± 72 min
same,Tmax,"with insulin, 100 Units/450 mg oral, read-out: 4-CNAB tmax, median",30 min
same,AUC(0-inf),[4],37600 ± 5430 ng·h/mL
same,AUC(0-t),[4],36600 ± 5760 ng·h/mL
same,Cmax,[4],35800 ± 12300 ng/mL
same,MRT,[4],1.45 ± 0.17 h
same,MRT inf,[4],1.9 ± 0.58 h
same,Vd/F,"with insulin, 100 Units/600 mg oral, read-out: 4-CNAB Vz/F",96 ± 35 L
same,half-life,[4],246 ± 72 min
same,Tmax,"with insulin, 100 Units/600 mg oral, read-out: 4-CNAB tmax, median",30 min
same,AUC(0-inf),[5],4920 ± 1100 ng·h/mL
same,AUC(0-t),[5],4680 ± 1080 ng·h/mL
same,Cmax,[5],6200 ± 3600 ng/mL
same,MRT,[5],1.42 ± 0.56 h
same,MRT inf,[5],2.39 ± 1.39 h
same,Vd/F,"with insulin, 150 Units/100 mg oral, read-out: 4-CNAB Vz/F",148 ± 102 L
same,half-life,[5],288 ± 204 min
same,Tmax,"with insulin, 150 Units/100 mg oral, read-out: 4-CNAB tmax, median",30 min
same,AUC(0-inf),[6],10300 ± 2080 ng·h/mL
same,AUC(0-t),[6],10000 ± 1890 ng·h/mL
same,Cmax,[6],10100 ± 5090 ng/mL
same,MRT,[6],1.59 ± 0.23 h
same,MRT inf,[6],1.97 ± 0.39 h
same,Vd/F,"with insulin, 150 Units/200 mg oral, read-out: 4-CNAB Vz/F",89 ± 35 L
same,half-life,[6],192 ± 84 min
same,Tmax,"with insulin, 150 Units/200 mg oral, read-out: 4-CNAB tmax, median",30 min
same,MRT last,4-CNAB alone 400 mg oral,1.6 ± 0.23 h
same,MRT last,4-CNAB alone 800 mg oral,1.75 ± 0.22 h
same,MRT last,4-CNAB alone 1400 mg oral,1.6 ± 0.2 h
same,MRT last,4-CNAB alone 2000 mg oral,1.73 ± 0.31 h
same,4-CNAB Cl/F,[2],834 ± 527 mL/min
same,4-CNAB Kel,[2],0.19 ± 0.12 h⁻¹
same,4-CNAB Cl/F,[3],287 ± 49 mL/min
same,4-CNAB Kel,[3],0.185 ± 0.06 h⁻¹
same,4-CNAB Cl/F,[4],271 ± 38 mL/min
same,4-CNAB Kel,[4],0.19 ± 0.06 h⁻¹
same,4-CNAB Cl/F,[5],352 ± 68 mL/min
same,4-CNAB Kel,[5],0.22 ± 0.14 h⁻¹
same,4-CNAB Cl/F,[6],338 ± 75 mL/min
same,4-CNAB Kel,[6],0.25 ± 0.09 h⁻¹
